Data taken from patent US20110158980A1, “METHODS TO TREAT AND SCREEN FOR AGENTS TO TREAT OBESITY” (TRUSTEES OF TUFTS COLLEGE, priority 2008, published 2011).

System: 3T3-L1 adipocytes
Assay: Metabolic flux analysis (stoichiometric model) of adipocyte intermediary metabolism
Type: cell-based
Conditions: day 12 post-induction
Description: 3T3-L1 preadipocytes were plated onto 24-well plates and expanded in preadipocyte growth medium consisting of DMEM supplemented with calf serum (10% v/v), penicillin and streptomycin. Medium was replenished every other day. Two days post-confluence, the cells were induced to differentiate using an adipogenic cocktail (1 μg/ml insulin, 0.5 mM isobutylmethylxanthine, and 1 μM dexamethasone) added to a basal medium (DMEM with 10% fetal bovine serum and penicillin/streptomycin). After 48 hrs, the first medium was replaced with a second induction medium consisting of the basal adipocyte medium supplemented with only insulin. […] This basal medium was replenished every other day during the remainder of the culture experiments.
A stoichiometric model of adipocyte central carbon metabolism was constructed as described previously (Si Y, Yoon J, Lee K. American journal of physiology 2007; 292:E1637-46). The model consisted of the major pathways of central carbon metabolism (Table 1). Intracellular fluxes were estimated by solving a constrained non-linear optimization problem with stoichiometric and thermodynamic constraints (Nolan R P, Fenley A P, Lee K. Metab Eng 2006; 8:30-45).

Structure (SMILES): NC(=O)C(=O)O [oxamate]
- Flux RXN 28 Metabolism of ketone bodies (OXA 20 mM): 6.4 ± 0.3 mmol/g-DNA/2 days
- Flux RXN 29 Metabolism of ketone bodies (OXA 20 mM): 0.0 ± 0.0 mmol/g-DNA/2 days
- Flux RXN 30 Metabolism of ketone bodies (to 3-Hydroxybutyrate) (OXA 20 mM): 10.8 ± 2.2 mmol/g-DNA/2 days
- Flux RXN 31 Amino acid metabolism: Pyruvate + NH4+ + NADPH = Alanine (OXA 20 mM): 0.0 ± 0.0 mmol/g-DNA/2 days
- Flux RXN 32 Amino acid metabolism: Aspartate + NH4+ = Asparagine (OXA 20 mM): 0.6 ± 0.1 mmol/g-DNA/2 days
- Flux RXN 33 Amino acid metabolism: Aspartate = Oxaloacetate + NH4+ + NADH (OXA 20 mM): 0.0 ± 0.0 mmol/g-DNA/2 days
- Flux RXN 34 Amino acid metabolism: Cysteine = Pyruvate + NH4+ + NADH (OXA 20 mM): 0.0 ± 0.0 mmol/g-DNA/2 days
- Flux RXN 35 Amino acid metabolism: Glutamate = 2-Oxoglutarate + NH4+ + NADH (OXA 20 mM): 0.0 ± 0.0 mmol/g-DNA/2 days
- Flux RXN 36 Amino acid metabolism: Glutamate + NH4+ + ATP = Glutamine (OXA 20 mM): 8.0 ± 1.0 mmol/g-DNA/2 days
- Flux RXN 37 Amino acid metabolism: Serine + THF = Glycine (OXA 20 mM): 5.0 ± 0.3 mmol/g-DNA/2 days
- Flux RXN 38 Amino acid metabolism: Histidine + THF = Glutamate + NH4+ (OXA 20 mM): 4.1 ± 0.5 mmol/g-DNA/2 days
- Flux RXN 39 Amino acid metabolism: Isoleucine + 2 CoA (OXA 20 mM): 6.1 ± 0.3 mmol/g-DNA/2 days
- Flux RXN 40 Amino acid metabolism: Leucine + CoA + CO2 + ATP (OXA 20 mM): 6.8 ± 0.3 mmol/g-DNA/2 days
- Flux RXN 41 Amino acid metabolism: Lysine = 2-Oxoadipate + 2 NH4+ + 3 NADH (OXA 20 mM): 0.0 ± 0.0 mmol/g-DNA/2 days
- Flux RXN 42 Amino acid metabolism: 2-Oxoadipate + CoA (OXA 20 mM): 0.0 ± 0.0 mmol/g-DNA/2 days
- Flux RXN 43 Amino acid metabolism: Methionine + Serine + ATP + CoA + THF (OXA 20 mM): 0.0 ± 0.0 mmol/g-DNA/2 days
- Flux RXN 44 Amino acid metabolism: Phenylalanine + O2 + NADH = Tyrosine (OXA 20 mM): 0.0 ± 0.0 mmol/g-DNA/2 days
- Flux RXN 45 Amino acid metabolism: Glutamate + ATP + 2 NADPH = Proline (OXA 20 mM): 0.0 ± 0.0 mmol/g-DNA/2 days
- Flux RXN 46 Amino acid metabolism: Serine = Pyruvate + NH4+ (OXA 20 mM): 0.0 ± 0.0 mmol/g-DNA/2 days
- Flux RXN 47 Amino acid metabolism: Threonine + CoA to Glycine (OXA 20 mM): 0.0 ± 0.0 mmol/g-DNA/2 days
- Flux RXN 48 Amino acid metabolism: Tryptophan + 3 O2 + NADPH = 2-Oxoadipate + Alanine + CO2 + NH4+ (OXA 20 mM): 0.0 ± 0.0 mmol/g-DNA/2 days
- Flux RXN 49 Amino acid metabolism: Tyrosine + 2 O2 (OXA 20 mM): 0.0 ± 0.0 mmol/g-DNA/2 days
- Flux RXN 50 Amino acid metabolism: Valine + CoA (OXA 20 mM): 3.3 ± 0.2 mmol/g-DNA/2 days
- Flux RXN 51 Plasma exchange: Palmitate (OXA 20 mM): 1.0 ± 0.1 mmol/g-DNA/2 days
- Flux RXN 52 Plasma exchange: Acetoacetate (OXA 20 mM): 2.4 ± 1.9 mmol/g-DNA/2 days
- Flux RXN 53 Plasma exchange: Alanine (OXA 20 mM): 0.0 ± 0.0 mmol/g-DNA/2 days
- Flux RXN 54 Plasma exchange: Aspartate (OXA 20 mM): 0.6 ± 0.1 mmol/g-DNA/2 days
- Flux RXN 55 Plasma exchange: Cysteine (OXA 20 mM): 0.0 ± 0.0 mmol/g-DNA/2 days
- Flux RXN 56 Plasma exchange: Glutamate (OXA 20 mM): 3.9 ± 0.5 mmol/g-DNA/2 days
- Flux RXN 57 Plasma exchange: Glycine (OXA 20 mM): 5.0 ± 0.3 mmol/g-DNA/2 days
- Flux RXN 58 Plasma exchange: Serine (OXA 20 mM): 5.0 ± 0.3 mmol/g-DNA/2 days
- Flux RXN 59 Plasma exchange: Tyrosine (OXA 20 mM): 0.0 ± 0.0 mmol/g-DNA/2 days
- Flux RXN 60 Plasma exchange: O2 (calculated oxygen uptake rate) (OXA 20 mM): 511.3 ± 67.1 mmol/g-DNA/2 days
- Flux RXN 61 Plasma exchange: CO2 (OXA 20 mM): 756.9 ± 75.2 mmol/g-DNA/2 days
- Flux RXN 62 Plasma exchange: NH4+ (OXA 20 mM): 11.7 ± 0.5 mmol/g-DNA/2 days
- Flux RXN 63 Mitochondrial exchange: Pyruvate (OXA 20 mM): 399.5 ± 40.8 mmol/g-DNA/2 days
- Flux RXN 64 Mitochondrial exchange: Malate in, Citrate out (OXA 20 mM): 105.3 ± 13.9 mmol/g-DNA/2 days
- Flux RXN 65 Mitochondrial exchange: 2-Oxoglutarate in, Malate out (OXA 20 mM): 41.6 ± 9.1 mmol/g-DNA/2 days
- Flux RXN 66 Mitochondrial exchange: Pi in, Malate out (OXA 20 mM): 54.8 ± 20.5 mmol/g-DNA/2 days
- Decrease of PC flux (oxamate): 41%
- Decrease of citrate transport out of the mitochondria (oxamate): 44%
- Decrease of de novo fatty acid synthesis (oxamate): 49%
- Decrease of flux through glycolysis (oxamate): 17˜26%
- Decrease of flux through the pentose phosphate pathway (PPP) (oxamate): 82%
- Decrease of pyruvate flux entering the TCA cycle (oxamate): 21%
- Increase of lipolysis (oxamate): 131%
- Increase of triglyceride synthesis (oxamate): 65%
- Reduction of net triglyceride accumulation (oxamate): 52%
